Assay results as given in ChEMBL document CHEMBL3120108, “Direct interaction of garcinol and related polyisoprenylated benzophenones of Garcinia cambogia fruits with the transcription factor STAT-1 as a likely mechanism of their inhibitory effect on cytokine signaling pathways” (J Nat Prod, 2014).
Calls of active or inactive are those of the source. No cut-off for these calls is given here.

What was measured:
[1] = molecular target: T1, Signal transducer and activator of transcription 1-alpha/beta (Homo sapiens, UniProt P42224); test: Binding affinity to STAT1 (unknown origin) by surface plasmon resonance assay
T1 sequence (P42224 whole entry): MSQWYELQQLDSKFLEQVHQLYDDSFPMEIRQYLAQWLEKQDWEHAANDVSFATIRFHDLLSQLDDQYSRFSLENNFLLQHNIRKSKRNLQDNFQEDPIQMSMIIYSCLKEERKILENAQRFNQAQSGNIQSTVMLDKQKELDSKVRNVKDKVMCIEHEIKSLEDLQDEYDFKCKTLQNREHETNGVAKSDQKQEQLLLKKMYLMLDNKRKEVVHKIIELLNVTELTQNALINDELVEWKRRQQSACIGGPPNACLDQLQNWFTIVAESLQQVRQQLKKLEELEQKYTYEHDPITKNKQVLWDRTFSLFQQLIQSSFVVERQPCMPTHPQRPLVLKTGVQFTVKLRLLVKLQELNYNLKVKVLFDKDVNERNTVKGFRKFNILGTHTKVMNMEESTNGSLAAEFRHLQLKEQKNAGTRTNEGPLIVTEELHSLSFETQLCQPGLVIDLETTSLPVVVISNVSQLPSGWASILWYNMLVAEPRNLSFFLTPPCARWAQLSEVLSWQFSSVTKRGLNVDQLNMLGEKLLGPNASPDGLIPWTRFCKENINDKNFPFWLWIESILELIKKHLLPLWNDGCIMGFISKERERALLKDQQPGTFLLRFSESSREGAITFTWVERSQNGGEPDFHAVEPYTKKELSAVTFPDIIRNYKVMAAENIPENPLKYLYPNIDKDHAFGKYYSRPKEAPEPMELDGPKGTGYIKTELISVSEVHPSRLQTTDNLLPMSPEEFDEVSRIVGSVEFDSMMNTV

MDA-MB-231 [2] = test: Inhibition of TNFalpha-induced NFkappaB activation in human MDA-MB-231 cells assessed as reduction of NFkappaB-DNA binding activity preincubated for 30 mins followed by cytokine challenge measured after 60 mins by electrophoretic mobility shift assay; type: cell-based
MDA-MB-231 [3] = test: Inhibition of TNFalpha-induced NFkappaB activation in human MDA-MB-231 cells assessed as reduction of NFkappaB-DNA binding activity at 50 uM preincubated for 30 mins followed by cytokine challenge measured after 60 mins by electrophoretic mobility shift assay; type: cell-based
[4] = molecular target: T2, Signal transducer and activator of transcription 1 (Rattus norvegicus) (UniProt Q6P6Q7); test: Inhibition of INFgamma-induced STAT1 activation in rat INS-1E cells assessed as reduction of STAT1-DNA binding activity at 25 uM preincubated for 30 mins followed by cytokine challenge measured after 60 mins by electrophoretic mobility shift assay; type: cell-based
T2 sequence (whole entry): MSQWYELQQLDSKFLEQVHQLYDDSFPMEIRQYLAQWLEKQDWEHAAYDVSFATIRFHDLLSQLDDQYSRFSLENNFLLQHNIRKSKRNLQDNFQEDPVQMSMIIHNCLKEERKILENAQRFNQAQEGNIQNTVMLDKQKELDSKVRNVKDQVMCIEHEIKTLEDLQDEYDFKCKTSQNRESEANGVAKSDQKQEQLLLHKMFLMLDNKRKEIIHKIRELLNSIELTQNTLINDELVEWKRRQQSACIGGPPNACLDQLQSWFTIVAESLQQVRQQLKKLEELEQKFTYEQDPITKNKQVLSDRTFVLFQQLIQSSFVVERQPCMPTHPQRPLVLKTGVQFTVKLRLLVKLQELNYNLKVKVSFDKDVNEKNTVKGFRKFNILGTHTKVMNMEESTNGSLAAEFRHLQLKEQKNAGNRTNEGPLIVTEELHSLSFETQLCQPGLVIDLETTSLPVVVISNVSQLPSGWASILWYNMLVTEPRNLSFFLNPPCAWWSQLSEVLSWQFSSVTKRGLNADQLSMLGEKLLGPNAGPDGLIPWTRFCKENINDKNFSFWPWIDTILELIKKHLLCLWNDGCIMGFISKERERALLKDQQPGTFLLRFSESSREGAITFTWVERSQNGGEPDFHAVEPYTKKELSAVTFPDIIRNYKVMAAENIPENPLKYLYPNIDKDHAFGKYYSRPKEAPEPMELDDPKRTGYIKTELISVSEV

[5] = molecular target: T3, Signal transducer and activator of transcription 1-alpha/beta (Homo sapiens) (UniProt P42224); test: Inhibition of INFgamma-induced STAT1 activation in human […] cells assessed as reduction of STAT1-DNA binding activity at 25 uM preincubated for 30 mins followed by cytokine challenge measured after 60 mins by electrophoretic mobility shift assay; type: cell-based
T3 sequence (whole entry): T1 sequence (P42224 whole entry)

INS-1E = test: Inhibition of TNFalpha-induced NFkappaB activation in rat INS-1E cells assessed as reduction of NFkappaB-DNA binding activity at 25 uM preincubated for 30 mins followed by cytokine challenge measured after 60 mins by electrophoretic mobility shift assay; type: cell-based
[6] = molecular target: T3, Signal transducer and activator of transcription 1-alpha/beta (Homo sapiens); test: Inhibition of INFgamma-induced STAT1 activation in human […] cells assessed as reduction of STAT1-DNA binding activity preincubated for 30 mins followed by cytokine challenge measured after 60 mins by electrophoretic mobility shift assay; type: cell-based
[7] = molecular target: T3, Signal transducer and activator of transcription 1-alpha/beta (Homo sapiens); test: Inhibition of INFgamma-induced STAT1 activation in human […] cells assessed as reduction of STAT1-DNA binding activity at 50 uM preincubated for 30 mins followed by cytokine challenge measured after 60 mins by electrophoretic mobility shift assay; type: cell-based
[8] = molecular target: T2, Signal transducer and activator of transcription 1 (Rattus norvegicus); test: Inhibition of INFgamma-induced STAT1 activation in rat INS-1E cells assessed as reduction of STAT1-DNA binding activity at 10 uM preincubated for 30 mins followed by cytokine challenge measured after 60 mins by electrophoretic mobility shift assay; type: cell-based
[9] = molecular target: T3, Signal transducer and activator of transcription 1-alpha/beta (Homo sapiens); test: Inhibition of STAT1 in human […] cells assessed as suppression of INFgamma-induced SOCS-1 expression at 25 to 40 uM by Northern blotting technique; type: cell-based

C=C(C)[C@@H](CC=C(C)C)C[C@@]12C[C@@H](CC=C(C)C)C(C)(C)[C@@](CC=C(C)C)(C(=O)C(C(=O)c3ccc(O)c(O)c3)=C1O)C2=O [GARCINOL]
Kd [1]: 16.9 µM
inhibition (MDA-MB-231 [2]): Dose-dependent effect
inhibition (MDA-MB-231 [3]): Active
inhibition [4]: Active
inhibition [5]: Active
inhibition (INS-1E): Active
inhibition [6]: Dose-dependent effect

CC(C)=CCC/C(C)=C/C[C@@]12C[C@H](CC=C(C)C)C(C)(C)[C@@](CC=C(C)C)(C(=O)C(C(=O)c3ccc(O)c(O)c3)=C1O)C2=O
Kd [1]: 4.67 µM
inhibition (MDA-MB-231 [3]): inactive
inhibition [4]: inactive
inhibition [7]: Active
inhibition (INS-1E): inactive
inhibition [6]: Dose-dependent effect

O=C(O[C@@H]1Cc2c(O)cc(O)cc2O[C@@H]1c1cc(O)c(O)c(O)c1)c1cc(O)c(O)c(O)c1 [EPIGALOCATECHIN GALLATE]
Kd [1]: 0.7 µM

CC(C)=CCC[C@@]1(C)[C@H](CC=C(C)C)C[C@]2(CC=C(C)C)C(=O)[C@@]1(CC=C(C)C)C(=O)C(C(=O)c1ccc(O)c(O)c1)=C2O [GUTTIFERONE K]
Kd [1]: 20.6 µM
inhibition [4]: Active
inhibition [7]: Active
inhibition [8]: Active
inhibition [6]: Dose-dependent effect
inhibition [9]: Active
